What was measured:
[1] = test system: isolated gastric fundic gland; experiment: CAP: Acid Secretion Inhibition Test In Vitro ([14C]-aminopyrine uptake); assay type: cell-based, rabbit (male Japanese White); conditions: final concentration 10^-5 M, histamine 10^-5 M, rabbit gastric fundic glands; for inhibition at 10 µM: Oryctolagus cuniculus, read-out: CAP acid secretion inhibitory rate
Protocol: CAP: Acid Secretion Inhibition Test In Vitro
The acid secretion inhibitory activity in a cell level is studied. It can also be used for studying the mechanism of the effect. […]
ii-a) Preparation of Isolated Gastric Fundus Gland Suspension
First, an isolated gastric fundic gland sample was prepared. Namely, a male Japanese White rabbit (2.5 to 3 kg) was anesthetized to death with Nembutal™ and then the abdomen was incised. Immediately thereafter, the stomach was removed and, after its pyloric and cardiac antrum were severed, incised along its greater curvature into two sheets. The gastric contents adhering to the mucosal surface was washed out with ice-cooled PBS (-) and then carefully washed therein. The gastric wall was spread on a cork board with its mucosal surface facing up and the feed and mucus thereon were completely removed with sterile gauze. The mucosa was separated therefrom by a spatula and then collected in ice-cooled PBS (-). After being washed twice with PBS (-), the mucosa was minced into 2-3 mm^3 pieces by scissors. These pieces were further washed twice with a nutrient solution. […] Into 70 ml of the nutrient solution containing 1 mg/ml of collagenase, minced mucosal pieces were dispersed and intensely stirred in a conical flask with a stirrer at 37° C. for 40 to 60 minutes. During this period, 100% O2 was sprayed on the nutrient solution surface and the pH was appropriately measured such that it was immediately adjusted to pH 7.4, when the value was therebelow, with a base. The nutrient solution was added to the reaction solution so as to attain the total amount of about 200 ml. After being filtered through a mesh, the suspension was divisionally introduced into 50 ml centrifuge tubes and left for 15 minutes such that gastric fundic gland was deposited. The supernatant was repeatedly removed by an aspirator, dispersed in the nutrient solution, and then left such that the gastric fundic gland was washed three times. At this time, without using a pipette, the suspension was alternately introduced into two centrifuge tubes so as to effect dispersion. The number of cells was counted under microscope and adjusted to 1.6×10^6 cells/ml. […]
ii-b) [^14 C]-aminopyrine Uptake Test
Then, [^14 C]-aminopyrine uptake test was performed. After an Eppendorf tube was weighed, 10 μl (final concentration: 10^-5 M) of histamine dissolved in the above-mentioned nutrient solution, 10 μl (final concentration: 10^-5 M) of the test compound dissolved in DMSO, and 10 μl (final concentration: 0.05 μCi/ml) of [^14 C]-aminopyrine diluted with the nutrient solution were introduced therein and then 970 μl of the isolated gastric fundic gland suspension prepared above was added thereto. […] After being centrifuged for 30 minutes, 200 μl of its supernatant was collected into a mini-vial, while the rest was removed by an aspirator. The gland pellet was completely dried as the tube with its lid being opened was kept for one night in a drying oven at 80° C. and then the lid was closed and the weight was determined at room temperature. Then 100 μl of 1N KOH was added thereto and the tube with its lid being closed was treated at 60° C. for 1 to 2 hours so as to dissolve the pellet. Then, the contents thereof were transferred to a mini-vial. Into the mini-vial containing the supernatant or gland pellet, 4 ml of Atomlite™ was added and then the radioactivity was measured by a liquid scintillation counter. Here, after the radioactivity of the gland pellet was corrected by using a sample in which 20 mM of NaSCN was added so as to cancel the hydrogen ion concentration gradient, the integration ratio of aminopyrine specifically trapped by the gland pellet was calculated. This experiment was performed in duplicate. […]
ii-c) Calculation of the Accumulation Rate of Aminopyrine
Here, its principle will be briefly explained. In the isolated gastric fundic gland, acid is accumulated in a space between its secretory tubule and intraglandular cavity.

[2] = test system: gastric corpus mucosa cells; experiment: MTT: Cell Damaging and Protecting Effect Test; assay type: cell-based, rabbit (male Japanese White); conditions: final concentration 10^-4 M, 4 hours; smaller value is better; 100 µM
Text: (§1) MTT: Cell Damaging and Protecting Effect Test
(§2) It is confirmed that there is no toxicity in cell level. Those having a toxicity in cell level are inappropriate as an anti-ulcer drug.
(§3) A male Japanese White rabbit (2.5 to 3 kg) was anesthetized to death by Nembutal™ and, immediately thereafter, its stomach was removed. The greater curvature of the stomach was incised so as to remove the stomach contents therefrom. After the mucosal surface was washed with HBSS (Hanks' Balanced Salt Solution), the stomach in ice-cooled HBSS was transferred to a laboratory. Then, after the pyloric antrum was removed, the gastric corpus mucosa was separated by a spatula and then minced into 2 to 3 mm^3 pieces in BME (Basal Medium Eagle). Thereafter, these pieces were shaken at 120 to 130 cycles/minute for 15 minutes at 37° C. in BME 60 ml containing 280 U/ml of dispase and 30 to 50 U/ml of collagenase. Here, the concentration of collagenase was appropriately changed for each lot in view of the state of cells. The pieces were washed twice with EBSS (Earle's Balanced Salt Solution) containing 1 mM of EDTA and then shaken in MEM (Minimum Essential Medium) containing 1 mM of EDTA at 37° C. for 5 minutes. Subsequently, they were shaken in the dispase and collagenase having the same concentrations as those mentioned above for 15 minutes so as to remove the supernatant and then further shaken at 37° C. for 50 to 60 minutes at 120 to 130 cycles/minute. Then, after being washed twice with HBSS, Ham F12 containing 2% of Ultrocer G™ was used to attain the concentration of 1×10^6 cells/ml. Thus formed suspension was dispensed in each well of a 96-well plate by 200 μl. The plate was incubated in the atmosphere composed of 5% CO2 and 95% air at 37° C. for three days so as to attain a confluent state and then subjected to MTT assay.
(§4) The sample compound was dissolved in DMSO so as to attain a concentration of 10^-2 M and then diluted with HBSS containing 2% of Ultrocer G™ so as to attain a final concentration of 10^-4 M. To each group, which 8 wells were used for, 10 μl of MTT reagent was added immediately after 100 μl of the medium in each well was exchanged for same volume of the resulting solution of the sample compound. After being incubated in an atmosphere composed of 5% CO2 and 95% air at 37° C. for 4 hours, thus formed solution was centrifuged and then its supernatant was discarded. Subsequently, 100 μl of 100% ethanol was added to the residue so as to dissolve MTT formazan. Then, the absorbance (OD: 570 to 630) was measured by a microplate reader. This method utilizes a phenomenon in which MTT is changed to MTT formazan only by mitochondria of living cells so as to change color.
(§5) The cell damaging or cell protecting effect of the sample compound at the final concentration of 10^-4 M was expressed as cell damaging rate (%) as follows:
(§6) cell damaging rate (%)=(1-(absorbance in sample group/absorbance in control group))×100
(§7) Accordingly, the smaller rate value is better in the cell damage.

[3] = MTT: Cell Damaging and Protecting Effect Test; assay type: cell-based, rabbit (male Japanese White); conditions: rabbit, gastric corpus mucosa cells, final concentration 10^-4 M, smaller value is better, read-out: MTT cell damaging rate
Text: as §1, §2, §3, §4, §5, §6, §7

stress ulcer = experiment: WIS: Restraint and Water Immersion Stress-Induced Ulcer Inhibition Test; assay type: in vivo, rat (male Crj:SD or Slc:SD); conditions: 100 mg/kg oral, rats, 7 hours restraint and water immersion (21° C.)
Protocol: WIS: Restraint and Water Immersion Stress-Induced Ulcer Inhibition Test
The degree of inhibition of the stress ulcer formation is tested.
Male Crj:SD or Slc:SD rats (6 to 7-week-old) were fasted overnight, but allowed free access to water. Each group has 5 to 8 of these rats. […] To a control group, the vehicle was administered. 10 minutes later, the rats were placed in a stress cage and immersed to the level of xipfoid process in a water bath (21° C.) for 7 hours. At the end of the stress, the rats were sacrificed by inhalation of ether or carbon dioxide. Then, the stomach of each was removed, inflated by injecting 10 ml of 5% formalin neutral buffer solution, and immersed in 1% formalin neutral buffer solution for 30 minutes or more to be fixed. The stomach was incised along the greater curvature and then the length of each erosion in the glandular portion was determined under dissecting microscope. The sum of the length of erosions per stomach was defined as ulcer index (UI).
The effect obtained when 100 mg/kg of the sample compound had been administered was expressed as ulcer formation inhibitory rate (%) as follows:
ulcer formation inhibitory rate (%)=(1-(UI in sample group/UI in control group))×100

Helicobacter pyroli = experiment: AHP: Antibacterial Activity Test Against Helicobacter pyroli (agar dilution); assay type: cell-based, HP NCTC 11637; conditions: for AHP antibacterial activity, colony number relative to control plate: MIC 100 μg/ml or more, plate with 250 mM solution of the sample compound; for MIC: Helicobacter, NCTC11637, 168 h, HP NCTC 11637, agar dilution, 7 days, read-out: AHP minimum inhibitory concentration (MIC)
Protocol: AHP: Antibacterial Activity Test Against Helicobacter pyroli i) Meaning The minimum inhibitory concentration (MIC) against Helicobacter pyroli (microaerophilic gram-negative bacterium which is supposed to deeply involve in pathogenesis, relapse, and recrudescence of ulcer, referred to as "HP" in the following) is measured so as to find out compounds which have antimicrobial activity against Helicobacter pyroli. ii) Method MICs were determined by the agar dilution method. The stock culture (-80° C.) of HP NCTC 11637 was thawed and cultured on tripticase soy agar supplemented with 5% sheep blood at 37° C. in an atmosphere of 5% O2, 10% CO2, and 85% N2. Grown colonies were transferred to the same plate and precultured for 3 days under the same condition. […] 10 μl of the bacterial suspension for inoculation (about 10^3 cfu) was inoculated on this plate and cultured for 7 days under the same condition as that of preculture. […] As the result of the comparison of these plates, when the number of the colony on the plate containing the sample compound was less than 90% with respect to that on the control plate, it was represented by "+". Contrary to this, when there was 90% or more, it was represented by "-".

mice = conditions: mouse, in vivo
Protocol: AT: Single Dose Toxicity Pretest
Male Slc:ICR mice (5-week-old) were used. Each group has 3 to 5 mice and each mouse was fasted, but allowed free access to water, for 4 to 5 hours from 9 a.m. in the test day. Then, 2,000 mg/10 ml/kg of the sample compound dissolved or suspended in an aqueous solution of 0.5% sodium carboxymethyl cellulose was orally administered thereto. To a control, only the vehicle was administered. […] The body weight was measured before and after the fasting as well as at the same time everyday. The dead animals were immediately subjected to autopsy and their organs were observed microscopically. Also, the living animals were sacrificed with ether or carbon dioxide one week after the administration and then their organs were observed microscopically.
The toxicity at the single dose of 2,000 mg/kg of the sample compound was expressed as being classified into 5 levels.
5: Mortality rate is 0%; no toxicity is found at all both in behavior and organs.
4: Mortality rate is 0%; while no toxicity is found in organs, slight toxicity is observed in behavior and body weight increase.
3: While there is a dead animal (though not all the animals are dead), no toxicity is found in organs.
2: Regardless of whether there is a dead animal or not, toxicity is found in organs.
1: All the animals are dead.

| SMILES | inhibition at 10 µM [1] [%] | cytotoxicity at 4 h, 100 µM [3] [%] | AHP antibacterial activity, colony number relative to control plate (Helicobacter pyroli) | other results |
| --- | --- | --- | --- | --- |
| CC(C)=CCC/C(C)=C/COc1ccc(C(=O)N2CCN(CCNC(=O)c3ccc4c(c3)OCO4)CC2)cc1CC(C)C [Example 2, 1-(4-geranyloxy-3-isobutyl)benzoyl-4-[2-(piperonyloylamino)ethyl]piperazin] |  |  |  | CAP acid secretion inhibitory rate [1]: 99.4%; MTT cell damaging rate [2]: 22% |
| CC(C)=CCC/C(C)=C/COc1ccc(C(=O)N2CCN(CCOC(=O)c3ccncc3)CC2)cc1 [Example 3, 1-(4-geranyloxy)benzoyl-4-(2-isonicotinoyloxyethyl)piperazine] | 101 | -24 |  |  |
| CC(C)=CCC/C(C)=C/COc1ccc(C(=O)N2CCN(Cc3ccc4c(c3)OCO4)CC2)cc1 [Example 4, 1-(4-geranyloxy)benzoyl-4-piperonylpiperazine] |  | -29 | + (the number of the colony on the plate containing the sample compound was less than 90% with respect to that on the control plate) | WIS ulcer formation inhibitory rate (stress ulcer): 43% |
| COc1cc(C(=O)N2CCN(Cc3ccccc3)CC2)cc(OC)c1OC/C=C(\C)CCC=C(C)C [Example 5, 1-benzyl-4-(3,5-dimethoxy-4-geranyloxy)benzoylpiperazine] | 99.2 | -50 | + (the number of the colony on the plate containing the sample compound was less than 90% with respect to that on the control plate) |  |
| CC(C)=CCOc1cc(C(=O)N2CCN(Cc3ccccc3)CC2)cc(OCC=C(C)C)c1OCC=C(C)C [Example 6, 1-benzyl-4-(3,4,5-triprenyloxy)benzoylpiperazine] | 99.5 | -16 |  |  |
| COc1cc(C(=O)N2CCN(Cc3ccccc3)CC2)cc(OC/C=C(\C)CCC=C(C)C)c1OC [Example 7, 1-benzyl-4-(3,4-dimethoxy-5-geranyloxy)benzoylpiperazine] | 99.6 | -44 |  |  |
| CC(C)Cc1cc(C(=O)N2CCN(C(=O)NC(C)C)CC2)ccc1OCc1ccc(F)cc1 [Example 8, 1-[4-(4-fluorobenzyloxy)-3-isobutyl]benzoyl-4-(N-isopropylcarbamoyl)piperazine] | 36.9 | -93 |  | MIC (Helicobacter pyroli): < 3.13 µg/mL |
| CC(C)Cc1cc(C(=O)N2CCN(Cc3ccccc3)CC2)ccc1OCc1ccccc1 [Example 9, 1-(4-benzyloxy-3-isobutyl)benzoyl-4-benzylpiperazine] | 94.6 | -32 | + (the number of the colony on the plate containing the sample compound was less than 90% with respect to that on the control plate) |  |
| CC(C)Cc1cc(C(=O)N2CCN(c3ccccn3)CC2)ccc1OCc1ccc(F)cc1 [Example 10, 1-[4-(4-fluorobenzyloxy)-3-isobutyl]benzoyl-4-(2-pyridyl) piperazine] | 96 | -34 |  | AT single dose toxicity level (mice): 5 |
| CC(C)Cc1cccc(C(=O)N2CCN(Cc3ccc4c(c3)OCO4)CC2)c1O [Example 11] | 93.1 | 5 |  | MIC (Helicobacter pyroli): < 3.13 µg/mL |
| CC(C)Cc1ccc(C(=O)N2CCN(C(c3ccccc3)c3ccccc3)CC2)cc1O [Example 12, 1-diphenylmethyl-4-(3-hydroxy-4-isobutyl)benzoylpiperazine] | 41.9 | -12 | + (the number of the colony on the plate containing the sample compound was less than 90% with respect to that on the control plate) |  |

— patent US5962456A, “N-acylpiperazine derivative, anti-ulcer drug, and antibacterial drug” (Shiseido Co., Ltd., priority 1996, dated 1999)
